Test results as given in patent publication US20260158009A1 (GENZYME CORPORATION, priority 2023, published 2026).

Legend:
[1] = molecular target: T1, hRIPK1 (aa 1-375) fusion protein (Homo sapiens, UniProt Q13546); assay: ADP-Glo kinase assay: catalytic activity of RIPK1 (autophosphorylation, conversion of ATP to ADP); type: biochemical
T1 construct: hRIPK1 (aa 1-375) fusion protein
T1 sequence (Q13546 1-375): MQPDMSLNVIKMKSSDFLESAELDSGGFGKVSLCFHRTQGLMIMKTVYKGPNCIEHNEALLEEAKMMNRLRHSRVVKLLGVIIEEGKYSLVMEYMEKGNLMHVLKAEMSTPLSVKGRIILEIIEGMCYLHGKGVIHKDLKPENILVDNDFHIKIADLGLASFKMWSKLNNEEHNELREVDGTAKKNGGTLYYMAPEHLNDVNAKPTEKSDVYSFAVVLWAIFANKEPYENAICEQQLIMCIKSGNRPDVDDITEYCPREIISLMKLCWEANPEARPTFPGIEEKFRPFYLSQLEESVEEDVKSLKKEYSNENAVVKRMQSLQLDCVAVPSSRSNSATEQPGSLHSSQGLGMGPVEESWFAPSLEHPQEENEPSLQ
Method in brief: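 hRIPK1 (aa 1-375) fusion protein (3.6 μg/ml final) was preincubated 30 min at rt with compound (33300-1.69 nM, 1% DMSO), then 50 μM ATP was added for 240 min at rt. ADP from autophosphorylation was measured by ADP-Glo luminescence and curves fitted by nonlinear regression.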

[2] = system: U937 cells; assay: Cellular assay in U937 cells: activity of RIPK1 inhibitors on TNFα/zVAD.fmk-induced cell death (necroptosis), CellTiter 96 AQueous (MTS) readout; type: cell-based; settings: Homo sapiens, U-937
Method in brief: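 Necroptosis was measured by viable-cell MTS reduction (4 h, absorbance 490 nm) after overnight (18–24 h) 37° C culture. Cell suspensions of U937 cells carried TNFα (100 ng/ml) plus zVAD.fmk (50 μM) before compound was added. A 10-point curve (10 μM–0.26 nM or 1 μM–0.07 nM) was run in duplicate, normalised to the control lacking TNFα/zVAD.fmk.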

In the case of `O=C([C@H]1CC[C@H](Cc2cc(F)cc(CCO)c2)CC1)N1OCC[C@H]1c1cc(F)cc(F)c1` [compound 283, trans-[(3S)-3-(3,5-difluorophenyl)isoxazolidin-2-yl]-[4-[[3-fluoro-5-(2-hydroxyethyl)phenyl]methyl]cyclohexyl]methanone], the IC50 [1] is reported as 0.016 µM and the IC50 [2] is reported as 0.013 µM.

Work on `Cc1nc([C@@H]2CCON2C(=O)[C@H]2CC[C@H](Cc3ccc(C)c(C(N)=O)c3)CC2)cs1` [compound 159, trans-2-methyl-5-[[4-[(3S)-3-(2-methylthiazol-4-yl)isoxazolidine-2-carbonyl]cyclohexyl]methyl]benzamide] yielded an IC50 [1] of 0.007 µM and an IC50 [2] of 0.048 µM.

With `N#Cc1cc(F)cc([C@@H]2CCON2C(=O)[C@H]2CC[C@H](Cc3cncnc3)CC2)c1` [compound 247, trans-3-fluoro-5-[(3S)-2-[4-(pyrimidin-5-ylmethyl)cyclohexanecarbonyl]isoxazolidin-3-yl]benzonitrile] the IC50 [1] was 0.022 µM and the IC50 [2] was 0.136 µM.

`Cc1cc(C[C@H]2CC[C@H](C(=O)N3OCC[C@H]3c3cnccn3)CC2)c(F)cn1` [compound 394, trans-[4-[(5-fluoro-2-methylpyridin-4-yl)methyl]cyclohexyl]-[(3S)-3-pyrazin-2-yl-1,2-oxazolidin-2-yl]methanone] showed an IC50 [1] of 0.014 µM and an IC50 [2] of 0.005 µM.

With `CNC(=O)c1cc(F)cc(C[C@H]2CC[C@H](C(=O)N3OCC[C@H]3c3cnccn3)CC2)c1` [compound 162, trans-3-fluoro-N-methyl-5-[[4-[(3S)-3-pyrazin-2-ylisoxazolidine-2-carbonyl]cyclohexyl]methyl]benzamide] the IC50 [1] was 0.004 µM and the IC50 [2] was 0.015 µM.

`Cc1nn(C[C@H]2CC[C@H](C(=O)N3OCC[C@H]3c3cc(F)cc(F)c3)CC2)c2cc(C(N)=O)cc(F)c12` [compound 103, trans-1-((4-((S)-3-(3,5-difluorophenyl)isoxazolidine-2-carbonyl)cyclohexyl)methyl)-4-fluoro-3-methyl-1H-indazole-6-carboxamide] showed an IC50 [1] of 0.023 µM and an IC50 [2] of 0.022 µM.

In the case of `Cn1cc(C[C@H]2CC[C@H](C(=O)N3OCC[C@H]3c3cncc(C#N)c3)CC2)cn1` [compound 235, trans-5-[(3S)-2-[4-[(1-methylpyrazol-4-yl)methyl]cyclohexanecarbonyl]isoxazolidin-3-yl]pyridine-3-carbonitrile], the IC50 [1] is reported as 0.035 µM and the IC50 [2] is reported as 0.152 µM.

`O=C([C@H]1CC[C@H](Cc2cnccn2)CC1)N1OCC[C@H]1c1cnccn1` [compound 246, trans-[(3S)-3-pyrazin-2-ylisoxazolidin-2-yl]-[4-(pyrazin-2-ylmethyl)cyclohexyl]methanone] gave an IC50 [1] of 0.15 µM and an IC50 [2] of 0.918 µM.

In the case of `N#Cc1cc(F)cc([C@@H]2CCON2C(=O)[C@H]2CC[C@H](Cc3ccc(CO)c(F)c3)CC2)c1` [compound 266, trans-3-fluoro-5-[(3S)-2-[4-[[3-fluoro-4-(hydroxymethyl)phenyl]methyl]cyclohexanecarbonyl]isoxazolidin-3-yl]benzonitrile], the IC50 [1] is reported as 0.013 µM and the IC50 [2] is reported as 0.001 µM.

Molecule `N#Cc1cc(F)cc([C@@H]2CCON2C(=O)[C@H]2CC[C@H](Cn3ccc4cc(F)c(C#N)cc43)CC2)c1` [compound 22, trans-1-((4-((S)-3-(3-cyano-5-fluorophenyl)isoxazolidine-2-carbonyl)cyclohexyl)methyl)-5-fluoro-1H-indole-6-carbonitrile] has an IC50 [1] of 0.02 µM and an IC50 [2] of 0.002 µM.

`Cc1ccc(C[C@H]2CC[C@H](C(=O)N3OCC[C@H]3c3cc(F)cc(C#N)c3)CC2)cc1C#N` [compound 109, trans-5-((4-((S)-3-(3-cyano-5-fluorophenyl)isoxazolidine-2-carbonyl)cyclohexyl)methyl)-2-methylbenzonitrile] was tested, and the IC50 [1] was 0.019 µM and the IC50 [2] was 0.001 µM.

`Cc1ncc(C[C@H]2CC[C@H](C(=O)N3OCC[C@H]3c3cnc(C)c(F)c3)CC2)c(C(F)(F)F)n1` [compound 399, [(3S)-3-(5-fluoro-6-methylpyridin-3-yl)-1,2-oxazolidin-2-yl]-[4-[[2-methyl-4-(trifluoromethyl)pyrimidin-5-yl]methyl]cyclohexyl]methanone] showed an IC50 [1] of 0.085 µM and an IC50 [2] of 0.274 µM.

For `N#Cc1ccc2cnn(C[C@H]3CC[C@H](C(=O)N4OCC[C@H]4c4cc(F)cc(F)c4)CC3)c2c1` [compound 29, trans-1-((4-((S)-3-(3,5-difluorophenyl)isoxazolidine-2-carbonyl)cyclohexyl)methyl)-1H-indazole-6-carbonitrile], the IC50 [1] was 0.012 µM and the IC50 [2] was 0.001 µM.

Work on `Cc1ccc([C@@H]2CCON2C(=O)[C@H]2CC[C@H](Cc3cnn4cc(C)nc4c3)CC2)cn1` [compound 353, trans-[4-[(2-methylimidazo[1,2-b]pyridazin-7-yl)methyl]cyclohexyl]-[(3S)-3-(6-methylpyridin-3-yl)-1,2-oxazolidin-2-yl]methanone] yielded an IC50 [1] of 0.087 µM and an IC50 [2] of 0.112 µM.

`Cc1cn2cc(C[C@H]3CC[C@H](C(=O)N4OCC[C@H]4c4csc(C)n4)CC3)cc(F)c2n1` [compound 370, trans-[4-(8-Fluoro-2-methyl-imidazo[1,2-a]pyridin-6-ylmethyl)-cyclohexyl]-[(S)-3-(2-methyl-thiazol-4-yl)-isoxazolidin-2-yl]-methanone] was tested, and the IC50 [1] was 0.034 µM and the IC50 [2] was 0.021 µM.

Work on `Cc1ccc([C@@H]2CCON2C(=O)[C@H]2CC[C@H](Cc3ccc(C)nn3)CC2)cn1` [compound 387, trans-[4-[(6-methylpyridazin-3-yl)methyl]cyclohexyl]-[(3S)-3-(6-methylpyridin-3-yl)-1,2-oxazolidin-2-yl]methanone] yielded an IC50 [1] of 0.995 µM and an IC50 [2] of 1.88 µM.

`N#Cc1cc2c(cc1F)ncn2C[C@H]1CC[C@H](C(=O)N2OCC[C@H]2c2cnccn2)CC1` [compound 98, trans-5-fluoro-1-((4-((S)-3-(pyrazin-2-yl)isoxazolidine-2-carbonyl)cyclohexyl)methyl)-1H-benzo[d]imidazole-6-carbonitrile] gave an IC50 [1] of 0.032 µM and an IC50 [2] of 0.084 µM.

Work on `CNC(=O)c1ccc(F)c(C[C@H]2CC[C@H](C(=O)N3OCC[C@H]3c3cncc(C#N)c3)CC2)c1` [compound 176, trans-3-[[4-[(3S)-3-(5-cyano-3-pyridyl)isoxazolidine-2-carbonyl]cyclohexyl]methyl]-4-fluoro-N-methyl-benzamide] yielded an IC50 [1] of 0.013 µM and an IC50 [2] of 0.015 µM.

Work on `Cc1cc(C)n(C[C@H]2CC[C@H](C(=O)N3OCC[C@H]3c3cc(F)cc(C#N)c3)CC2)n1` [compound 119, trans-3-((S)-2-(4-((3,5-dimethyl-1H-pyrazol-1-yl)methyl)cyclohexane-1-carbonyl)isoxazolidin-3-yl)-5-fluorobenzonitrile] yielded an IC50 [1] of 0.027 µM and an IC50 [2] of 0.054 µM.

For `Cc1c(C#N)cncc1C[C@H]1CC[C@H](C(=O)N2OCC[C@H]2c2cc(F)cc(F)c2)CC1` [compound 275, trans-5-[[4-[(3S)-3-(3,5-difluorophenyl)isoxazolidine-2-carbonyl]cyclohexyl]methyl]-4-methyl-pyridine-3-carbonitrile], the IC50 [1] was 0.008 µM and the IC50 [2] was 0.009 µM.

In the case of `Cc1ncc(C[C@H]2CC[C@H](C(=O)N3OCC[C@H]3c3cc(F)cc(F)c3)CC2)cn1` [compound 264, trans-[(3S)-3-(3,5-difluorophenyl)isoxazolidin-2-yl]-[4-[(2-methylpyrimidin-5-yl)methyl]cyclohexyl]methanone], the IC50 [1] is reported as 0.014 µM and the IC50 [2] is reported as 0.016 µM.

`N#Cc1cc(F)cc([C@@H]2CCON2C(=O)[C@H]2CC[C@H](Cn3cnc4cc(C#N)c(F)cc43)CC2)c1` [compound 11, trans-1-((4-((S)-3-(3-cyano-5-fluorophenyl)isoxazolidine-2-carbonyl)cyclohexyl)methyl)-6-fluoro-1H-benzo[d]imidazole-5-carbonitrile] showed an IC50 [1] of 0.059 µM and an IC50 [2] of 0.038 µM.

For `Cc1nc([C@@H]2CCON2C(=O)[C@H]2CC[C@H](Cn3ccc4cc(C(N)=O)ccc43)CC2)cs1` [compound 254, trans-1-[[4-[(3S)-3-(2-methylthiazol-4-yl)isoxazolidine-2-carbonyl]cyclohexyl]methyl]indole-5-carboxamide], the IC50 [1] was 0.02 µM and the IC50 [2] was 0.096 µM.

`O=C([C@H]1CC[C@H](Cc2cc(F)c3ncnn3c2)CC1)N1OCC[C@H]1c1cnccn1` [compound 205, trans-[4-[(8-fluoro-[1,2,4]triazolo[1,5-a]pyridin-6-yl)methyl]cyclohexyl]-[(3S)-3-pyrazin-2-ylisoxazolidin-2-yl]methanone] showed an IC50 [1] of 0.031 µM and an IC50 [2] of 0.112 µM.

Work on `NC(=O)c1cc2c(cc1F)ncn2C[C@H]1CC[C@H](C(=O)N2OCC[C@H]2c2cc(F)cc(F)c2)CC1` [compound 71, trans-1-((4-((S)-3-(3,5-difluorophenyl)isoxazolidine-2-carbonyl)cyclohexyl)methyl)-5-fluoro-1H-benzo[d]imidazole-6-carboxamide] yielded an IC50 [1] of 0.037 µM and an IC50 [2] of 0.093 µM.

Work on `Cc1cc(C[C@H]2CC[C@H](C(=O)N3OCC[C@H]3c3cc(F)cc(C#N)c3)CC2)cnn1` [compound 302, trans-3-fluoro-5-[(3S)-2-[4-[(6-methylpyridazin-4-yl)methyl]cyclohexanecarbonyl]isoxazolidin-3-yl]benzonitrile] yielded an IC50 [1] of 0.031 µM and an IC50 [2] of 0.037 µM.
